Data taken from patent US7094533B1, “Therapeutic and diagnostic applications of prostatic acid phosphatase in prostate cancer” (Board of Regents of the University of Nebraska, priority 1999, dated 2006).
Read-outs that look alike come from different tables or passages of the source.

Tests used:
[1] = tested on: DU145 cells; details: counted at day 3 (FIG. 1A)
Text: (§1) Cell Cultures. Human prostate carcinoma cell lines, LNCaP-FGC (LNCaP) (Horoszewicz et al., 1983, Cancer Res. 43:1809–1818), DU145 (Stone et al., 1978, Int. J. Cancer 21:274–281), and PC-3 (Kaighn et al., 1979, Invest. Urol. 17:16–23), were originally obtained from the American Type Culture Collection (Rockville, Md.) and routinely maintained in RPMI 1640 medium supplemented with 7% FBS, 1% glutamine, and 0.5% gentamicin, as described previously (Lin et al., 1992, Cancer Res. 52, 4600–4607; Lin et al., 1986, Mol. Cell. Biol. 6:4753–4757). Cultured cells were fed twice per week and trypsinized once per week; one passage equals one trypsinization. […] For experiments, LNCaP cells that had passage numbers less than 33 were designated as clone 33, passage numbers over 80 as clone 81, and passage numbers between 34 and 80 as clone 51. To investigate basal growth rates of different subcloned cells, cells were seeded and maintained in steroid-reduced medium containing 5% heat-inactivated dialyzed FBS. To quantify cell growth, attached cells were trypsinized and neutralized with medium-FBS. The total cell number including the suspended and attached cells were counted using a hemocytometer via trypan blue exclusion or a Coulter Counter Z1 model (Lin et al., 1992, Cancer Res. 52, 4600–4607; Lin et al., 1994, Differentiation 57:143–149).
(§2) Androgen Effect on Cell Growth, Protein Tyrosine Phosphorylation, PSA, and PAcP Expression. Cells were plated at a density of approximately 1×10^4 cells/cm^2 in RPMI 1640 medium containing 7% FBS and maintained in a 37° C. incubator (5% CO^2) for 3 days (Lin et al., 1992, Cancer Res. 52, 4600–4607; Lin et al., 1993, Arch. Biochem. Biophys. 300:384–390; both are incorporated by reference herein). To investigate androgen effect on cell growth and protein tyrosine phosphorylation, cells that had been maintained in the steroid-reduced medium containing 5% heat-inactivated dialyzed FBS for an additional 48 h were grown in fresh steroid-reduced medium in the presence or absence of different concentrations of DHT. After a time period specified in each set of experiments, cells were harvested and then counted using a hemocytometer or Coulter Counter (Lin et al., 1992, Cancer Res. 52, 4600–4607; Lin et al., 1994, Differentiation 57:143–149; incorporated by reference herein). The cell number in the control well was defined as ratio 1.0.
(§3) In FIG. 1A, the total cell number was counted at day 3 for PC-3 and DU145 cells and at day 4 fro LNCaP cells.

[2] = tested on: PC-3 cells; details: counted at day 3 (FIG. 1A)
Text: as §1, §2, §3

[3] = tested on: clone 33 LNCaP cells; details: 10 nM DHT
Text: as §1, §2, §3

[4] = tested on: clone 81 LNCaP cells; details: 10 nM DHT, 7-day treatment, clone 81 LNCaP (FIG. 2A)
Text: as §1, §2, §3

[5] = tested on: LNCaP-23 and LNCaP-34 cells; details: LNCaP-23 and LNCaP-34 versus clone 81 parent and LNCaP-CMV cells, different concentrations of DHT (FIG. 5D)
Description: as §2

[6] = tested on: PC-411 and PC-416 cells; details: p<0.05 (FIG. 6D)
Description: as §2

[7] = tested on: PSA mRNA; details: each clone of LNCaP cells (33, 51, 81), 10 nM DHT, 3 days
Text: (§4) Cells were harvested for preparation of total RNA and total cell lysate proteins as described below.

[8] = tested on: cellular PAcP; details: clone 33 LNCaP cells exposed to DHT (FIG. 3B)
Text: as §4
Western Blot Analysis. Subconfluent cells were trypsinized, pelleted, and rinsed with Hepes-buffered saline, pH 7.0, and then lysed in a hypotonic cell lysis buffer containing various protease inhibitors as described above. […] The relative levels of AR and PAcP protein were semiquantified by densitometric analyses of autoradiograms with different exposure time periods utilizing Molecular Dynamics equipment and software program.

[9] = tested on: PAcP mRNA in LNCaP cells
Text: Nuclear run-on experiment. […] Transcription was continued in the presence of “P-labeled UTP (Amersham. Life Science Inc.). The radioactive RNA was hybridized with a slot blot membrane containing the full length of PAcP cDNA.

[10] = tested on: AR in PC-3 cells; assay: Chloramphenicol acetyltransferase assay (pMSG-CAT reporter); format: cell-based, human; details: 10 nM R1881, 24 h, PC-3 cell lysate proteins (FIG. 6A)
Text: (§5) Chloramphenicol Acetyltransferase Assay.

[11] = tested on: DU 145 cells; assay: as above; format: cell-based, human; details: 10 nM R1881, DU 145 cells
Text: as §5

[12] = tested on: human AR cDNA-transfected PC-3 cells; details: 10 nM R1881, 24 h, human AR cDNA-transfected PC-3 cells (FIG. 6A)
Description: Chloramphenicol Acetyltransferase Assay. Cells that had been grown in medium containing 5% charcoal-stripped FBS were transfected with the pMSG-CAT reporter plasmid, pSG5 vector DNA, or pSG5-AR plasmid by the liposome-mediated transfection method (Lin et al., 1992, Cancer Res. 52, 4600–4607; Felgner et al., 1987, Proc. Natl. Acad. Sci. U.S.A. 84:7413–7417). After a 24-h incubation period, cells were maintained in medium supplemented with 5% steroid-reduced FBS in the presence or absence of 10 nM R1881, a synthetic androgen, in ethanol (0.01%, v/v). After an additional 24-h incubation, CAT assays were performed as described (Felgner et al., 1987, Proc. Natl. Acad. Sci. U.S.A. 84:7413–7417; Moszowicz et al., 1993, Mol. Endocrinol. 7:1861–869).

[13] = target: T1, PAcP (Homo sapiens, UniProt P15309); details: 20 nM okadaic acid; cited from earlier work
T1 sequence (P15309 33-386): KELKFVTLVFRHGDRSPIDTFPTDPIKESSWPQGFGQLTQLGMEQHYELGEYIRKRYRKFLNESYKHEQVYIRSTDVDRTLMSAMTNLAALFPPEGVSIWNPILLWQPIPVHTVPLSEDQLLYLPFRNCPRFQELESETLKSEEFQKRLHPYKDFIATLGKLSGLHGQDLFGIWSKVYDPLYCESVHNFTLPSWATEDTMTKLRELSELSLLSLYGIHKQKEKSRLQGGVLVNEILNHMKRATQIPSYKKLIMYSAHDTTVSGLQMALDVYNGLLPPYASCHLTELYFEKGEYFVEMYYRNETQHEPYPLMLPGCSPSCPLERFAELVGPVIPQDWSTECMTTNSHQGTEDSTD

[14] = tested on: PAcP cDNA transfected C-81 LNCaP cells; assay: Anchorage-independent growth, soft agar analysis; format: cell-based, human; details: LNCaP-23, -28, -40 cells, colonies after 3 weeks (FIG. 9B)
Description: (§6) Anchorage-independent growth. Anchorage-independent growth of prostate cancer cells was performed by soft agar analysis (Weiner et al., 1989, Oncogene 4:1175–1183; Horoszewicz et al., 1983, Cancer Res. 43:1809–1818). Briefly, cells were seeded in 0.25% agarose on the top of a base layer containing 0.6% agarose. One day after seeding, cell clumps containing more than one cell were excluded and the colony number was counted after 3 weeks of incubation.

[15] = tested on: PC-416 cells; assay: Anchorage-independent growth, soft agar analysis; format: cell-based, human; details: PC-416 cells (FIG. 9C)
Description: as §6

[16] = tested on: LNCaP xenograft tumors; assay: Subcutaneous xenograft tumors in male athymic mice, LNCaP cells; format: in vivo; details: 28 days after inoculation (C-81 LNCaP 241)
Description: (§7) Xenograft animal experiments. The protocol for the subcutaneous xenograft animal model in athymic mice was essentially as that described in Lin et al., 1995 (The Prostate 26:194–204). For comparing the tumorigenicity of different LNCaP cells, 1×10^6 cells were suspended in 0.1 ml medium, mixed with 0.1 ml matrigel (Collaborative Biomedical, MA), and injected subcutaneously in the hind flank of male mice. For examining the hormone effect on tumor development, 5×10^5 cells in matrigel were injected into female mice. For the PC-3 cell system, 1×10^6 cells in 0.2 ml medium suspension without matrigel were injected into male mice. The animal maintenance and the tumor measurement were followed the NIH guidelines and the specific guideline by the University of Nebraska Medical Center as previously described (Lin et al., 1995, The Prostate 26:194–204).

[17] = tested on: LNCaP xenograft tumors; assay: Subcutaneous xenograft tumors in female athymic mice, LNCaP cells; format: in vivo; details: for mice that did not develop any tumor: female, after 100 days of inoculation; for averaged tumor size: 70 days
Description: as §7

[18] = tested on: PC-3 xenograft tumors; assay: Subcutaneous xenograft tumors in male athymic mice, PC-3 cells; format: in vivo; details: for xenograft tumor size as % of PC-3 xenograft tumors: 42 days; for xenograft tumor size: 42 days after cell injection (PC-3 612 mm^3)
Description: as §7

With `C[C@]12CCC(=O)C[C@@H]1CC[C@@H]1[C@@H]2CC[C@]2(C)[C@@H](O)CC[C@@H]12` [DHT, 5α-dihydrotestosterone] the “effect on cell growth” value [1] was “did not have a significant effect”, the “effect on cell growth” value [2] was “did not have a significant effect” and the “stimulatory effect on cell growth” value ([3]; 7-day treatment, clone 33 LNCaP (FIG. 2A)) was no more than 2.5 fold. For the same molecule, the “stimulation of cell growth” value ([3]; clone 33 LNCaP, steroid-reduced medium, counted at day 4 (FIG. 1A)) was 1.5–2 fold, the “stimulation of cell growth” value [4] was roughly 20% and the “degree of androgen stimulation of cell growth” value [5] was “enhanced”. The “effect on cell growth” value [6] was “stimulated significantly”, the “induction of PSA mRNA, normalized to GAPDH” value [7] was 2–3 fold and the “cellular PAcP level” value [8] was “diminished level”. For the same molecule, the “transcription of PAcP mRNA” value ([9]; high density LNCaP cells (FIG. 11B)) was “suppressed” and the “transcription of PAcP mRNA” value ([9]; low density LNCaP cells (FIG. 11B)) was “stimulated”.

With `C[C@]1(O)CC[C@H]2[C@@H]3CCC4=CC(=O)CCC4=C3C=C[C@@]21C` [R1881] the “stimulation of the CAT activity” value [10] was roughly 2 fold, the “effect on the CAT activity” value [11] was “did not have an effect” and the “stimulation of the CAT activity” value [12] was roughly 9 fold.

In the case of `C=C1[C@@H](O)[C@@H]2O[C@]3(CC[C@H](/C=C/[C@@H](C)[C@@H]4CC(C)=C[C@@]5(O[C@H](C[C@@](C)(O)C(=O)O)CC[C@H]5O)O4)O3)CC[C@H]2O[C@@H]1[C@@H](O)C[C@H](C)[C@H]1O[C@@]2(CCCCO2)CC[C@H]1C` [okadaic acid], the “effect on PAcP activity” value [13] is given as “not affected”.

B1: cellular PAcP: cellular form of human prostatic acid phosphatase, expressed from full-length human PAcP cDNA driven by a pCMV-neo expression vector (protein)
chain: KELKFVTLVFRHGDRSPIDTFPTDPIKESSWPQGFGQLTQLGMEQHYELGEYIRKRYRKFLNESYKHEQVYIRSTDVDRTLMSAMTNLAALFPPEGVSIWNPILLWQPIPVHTVPLSEDQLLYLPFRNCPRFQELESETLKSEEFQKRLHPYKDFIATLGKLSGLHGQDLFGIWSKVYDPLYCESVHNFTLPSWATEDTMTKLRELSELSLLSLYGIHKQKEKSRLQGGVLVNEILNHMKRATQIPSYKKLIMYSAHDTTVSGLQMALDVYNGLLPPYASCHLTELYFEKGEYFVEMYYRNETQHEPYPLMLPGCSPSCPLERFAELVGPVIPQDWSTECMTTNSHQGTEDSTD
With B1 the “decrease of anchorage-independent growth” value [14] was “more than 100 folds”, the anchorage-independent growth [15] was “diminished” and the averaged tumor size ([16]; LN-23 cells) was 143 mm^3. The averaged tumor size ([16]; LN-34 cells) was 115 mm^3, the tumor induction ([17]; LN-23 and LN-40 cells, female mice, 35 days after inoculation (clone-81 782 mm^3)) was “no detectable tumor” and the “mice that did not develop any tumor” value ([17]; LN-23 mice) was 20%. The averaged tumor size ([17]; LN-23 tumors, female mice) was 347 mm^3, the “mice that did not develop any tumor” value ([17]; LN-40 mice) was 50% and the averaged tumor size ([17]; LN-40 tumors, female mice) was 214 mm^3. The “xenograft tumor size as % of PC-3 xenograft tumors” value ([18]; PC-412, male mice) was “about 38%”, the xenograft tumor size ([18]; PC-412, male mice) was 233 mm^3 and the “xenograft tumor size as % of PC-3 xenograft tumors” value ([18]; PC-416, male mice) was roughly 23%. It also gave a xenograft tumor size ([18]; PC-416, male mice) of 138 mm^3.
